# Reference: ChEMBL document CHEMBL4837229 (Eur J Med Chem, 2021)
# pIC50: −log10 of the molar value.
# Biological target: Neuraminidase (Influenza A virus (strain A/USSR/90/1977 H1N1), UniProt P03469, H274Y)
# Assay: Inhibition of Influenza A virus (A/California/04/2009 (H1N1)) Neuraminidase H274Y mutant using MUNANA as substrate preincubated for 5 to 15 mins followed by substrate addition and measured after 30 mins by fluorescence spectrophotometric method
row,Compound,pIC50
1,CCC(CC)O[C@@H]1C=C(C(=O)O)C[C@H](NC(N)=O)[C@H]1NC(C)=O,6.18
2,CCC(CC)O[C@@H]1C=C(C(=O)O)C[C@H](NC(=O)NNC)[C@H]1NC(C)=O,6.93
3,CCCCNNC(=O)N[C@H]1CC(C(=O)O)=C[C@@H](OC(CC)CC)[C@@H]1NC(C)=O,6.83
4,CCC(CC)O[C@@H]1C=C(C(=O)O)C[C@H](NC(=O)NN)[C@H]1NC(C)=O,6.88
5,CCCNNC(=O)N[C@H]1CC(C(=O)O)=C[C@@H](OC(CC)CC)[C@@H]1NC(C)=O,6.42
